# Several values for one entry are separate records, joined by “and”; a condition that tells them apart may be missing. Equal entries are not always repeated. Where two headings read alike, the source gives them in different places.
# Key:
# CbcWV with BetXB728a = type: cell-based, Pseudomonas syringae pv. syringae; settings: MKH13; pNcbcWV, pT-B3758; SBP BetXB728a; substrate 10 μM; single replication
# [1] = tested on: cbcXWV from B728a in QAC transporter-deficient BT strain; type: cell-based, Pseudomonas syringae pv. syringae; settings: BT(pCbcB728a), unlabelled competitor 0.5 mM, 10 min
# CbcWV with BetXPAO1 = type: cell-based, Pseudomonas aeruginosa; settings: MKH13; pNcbcWV, pT-PA3236; SBP BetXPAO1; substrate 10 μM; single replication
# [2] = tested on: cbcXWV from DC3000 in QAC transporter-deficient BT strain; type: cell-based, Pseudomonas syringae pv. tomato; settings: BT(pCbcDC3000), unlabelled competitor 0.5 mM, 10 min
# CbcWV with BetXDC3000 = type: cell-based, Pseudomonas syringae pv. tomato; settings: MKH13; pNcbcWV, pT-D3758; SBP BetXDC3000; substrate 10 μM; single replication
# [3] = tested on: Cbc core transporter CbcWV; type: cell-based, Pseudomonas aeruginosa; settings: MKH13, pNcbcWV, SBP None, substrate 10 μM, single replication
# CbcWV with CaiXPAO1 = type: cell-based, Pseudomonas aeruginosa; settings: MKH13; pNcbcWV, pT-PA5388; SBP CaiXPAO1; substrate 10 μM; single replication
# [4] = tested on: S. meliloti ChoXWV transporter; type: cell-based, Sinorhizobium meliloti
# CbcWV-CaiX = CbcWV-CaiX (Pseudomonas aeruginosa, UniProt Q9HTH6); test: Uptake kinetics, PA5378::tn; settings: pNcbcWV, SBP CaiXPAO1, mean (SE), n = 4
# [5] = tested on: CbcXWV from P. aeruginosa PAO1; type: cell-based, Pseudomonas aeruginosa; settings: MKH13, pCbcPAO1; radiolabelled substrate 1 mM; mean (SE), n = 10
# CbcXWV from B728a = type: cell-based, Pseudomonas syringae pv. syringae; settings: Acella, pET-cbcB728a; 1 mM IPTG; substrate 1 mM; single colony
# [6] = tested on: S. meliloti Cho transporter ChoXWV; type: cell-based, Sinorhizobium meliloti; settings: MKH13; pNchoXWV, Plasmid 2 None; SBP ChoX; substrate 10 μM; single replication
# CbcX with CbcWV [7] = biological target: T1, CbcX with CbcWV (Pseudomonas aeruginosa, UniProt Q9HTI6); test: Competitive uptake, MKH13 expressing cbcXWV; type: cell-based; settings: MKH13, pNcbcXWV, SBP CbcX, competitor 1 mM
# CbcX and CaiX with CbcWV = type: cell-based, Pseudomonas aeruginosa; settings: MKH13, pNcbcXWV, pT-PA5388, SBPs CbcX/CaiX, competitor 1 mM
# ChoXWV = biological target: T2, ChoXWV (Sinorhizobium meliloti, UniProt Q92N37); test: Uptake kinetics, MKH13; settings: MKH13, pNchoXWV; SBP ChoX; mean (SE), n = 4
# T2 sequence (Q92N37 28-318): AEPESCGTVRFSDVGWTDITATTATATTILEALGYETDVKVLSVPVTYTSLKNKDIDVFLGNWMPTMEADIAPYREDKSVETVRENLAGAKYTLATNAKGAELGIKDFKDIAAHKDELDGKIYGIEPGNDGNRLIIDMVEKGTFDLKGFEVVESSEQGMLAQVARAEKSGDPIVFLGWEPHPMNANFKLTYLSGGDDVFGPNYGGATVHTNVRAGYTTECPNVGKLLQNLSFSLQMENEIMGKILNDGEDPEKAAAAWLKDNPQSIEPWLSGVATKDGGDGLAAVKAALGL
# T2 sequence (Q92N36 1-281 partner): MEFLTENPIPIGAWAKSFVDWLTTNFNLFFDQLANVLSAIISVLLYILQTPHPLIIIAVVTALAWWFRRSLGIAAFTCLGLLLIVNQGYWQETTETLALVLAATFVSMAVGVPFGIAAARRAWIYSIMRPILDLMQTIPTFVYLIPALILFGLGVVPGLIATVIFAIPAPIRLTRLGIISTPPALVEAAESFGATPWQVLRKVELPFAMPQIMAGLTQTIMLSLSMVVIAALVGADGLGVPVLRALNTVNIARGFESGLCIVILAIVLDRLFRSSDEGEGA
# T2 sequence (Q92N35 1-349 partner): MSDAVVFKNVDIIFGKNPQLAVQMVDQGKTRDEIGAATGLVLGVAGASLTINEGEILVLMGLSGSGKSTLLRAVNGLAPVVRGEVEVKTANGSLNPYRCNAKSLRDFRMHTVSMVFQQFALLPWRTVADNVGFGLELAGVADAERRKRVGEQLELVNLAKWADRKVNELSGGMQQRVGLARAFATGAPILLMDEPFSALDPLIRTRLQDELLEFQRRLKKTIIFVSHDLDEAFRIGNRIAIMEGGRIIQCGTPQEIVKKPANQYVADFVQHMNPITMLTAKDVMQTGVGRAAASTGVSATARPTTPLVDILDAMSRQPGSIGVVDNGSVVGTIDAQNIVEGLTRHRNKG
# CbcX with CbcWV [8] = biological target: T1, CbcX with CbcWV
# [9] = tested on: P. syringae pv. tomato DC3000; type: cell-based, Pseudomonas syringae pv. tomato; settings: for uptake rate: DC3000 grown without choline and betaine as inducers, substrate 10 μM
# [10] = pNchoXW, host BT0028Ko, substrate 10 μM, mean (SE), n = 2
# [11] = pNchoXW, host BT3758Ko, substrate 10 μM, mean (SE), n = 3
# [12] = pNchoXWV, host BT2916Ko, substrate 10 μM, single replication
Structure (SMILES),Total uptake (CbcWV with BetXB728a),% inhibition of uptake of [^14C]substrate ([1]; [^14C]betaine 5 μM) [%],% inhibition of uptake of [^14C]substrate ([1]; [^14C]carnitine 5 μM) [%],% inhibition of uptake of [^14C]substrate ([1]; [^14C]choline 5 μM) [%],Total uptake (CbcWV with BetXPAO1),% inhibition of uptake of [^14C]substrate ([2]; [^14C]betaine 5 μM) [%],% inhibition of uptake of [^14C]substrate ([2]; [^14C]carnitine 5 μM) [%],% inhibition of uptake of [^14C]substrate ([2]; [^14C]choline 5 μM) [%],Total uptake (CbcWV with BetXDC3000),Total uptake ([3]; Plasmid 2 None),Total uptake ([3]; pTOK2T),Total uptake (CbcWV with CaiXPAO1),"Total uptake [4, 10]","Total uptake [4, 11]","Total uptake [4, 12]",Total uptake [5],Total uptake (CbcXWV from B728a),Total uptake [6],% inhibition of uptake of substrate by unlabelled competitor (CbcX with CbcWV [7]; [^14C]betaine 10 μM) [%],% inhibition of uptake of substrate by unlabelled competitor (CbcX with CbcWV [7]; [^14C]choline 10 μM),also measured
"C[N+](C)(C)C[C@H](O)CC(=O)[O-] [Carnitine, L-carnitine]",0 nmol (mg protein)^−1,5,93,5,0 nmol (mg protein)^−1,−2,94,−6,0 nmol (mg protein)^−1,0 nmol (mg protein)^−1,0 nmol (mg protein)^−1,3.8 nmol (mg protein)^−1,1.2 (0.1) nmol (mg protein)^−1,1.8 (0.4) nmol (mg protein)^−1,0.1 nmol (mg protein)^−1,0.8 (0.4) nmol (mg protein)^−1,0 nmol (mg protein)^−1,0 nmol (mg protein)^−1,3,6%,maximal rate of uptake (Vmax) (CbcWV-CaiX): 3.8 (0.33) nmol min^−1 (mg protein)^−1; % inhibition of uptake of substrate by unlabelled competitor (CbcX and CaiX with CbcWV; [^14C]betaine 10 μM): 10%; % inhibition of uptake of substrate by unlabelled competitor (CbcX and CaiX with CbcWV; [^14C]choline 10 μM): −2%
"C[N+](C)(C)CCO [Choline, choline]",0 nmol (mg protein)^−1,3,75,93,0 nmol (mg protein)^−1,−6,81,89,0 nmol (mg protein)^−1,0 nmol (mg protein)^−1,0 nmol (mg protein)^−1,0 nmol (mg protein)^−1,7.8 (0.07) nmol (mg protein)^−1,8.6 (1.28) nmol (mg protein)^−1,6.5 nmol (mg protein)^−1,12.1 (1.1) nmol (mg protein)^−1,19.2 nmol (mg protein)^−1,4.7 nmol (mg protein)^−1,99,92%,"maximal rate of uptake (Vmax) (ChoXWV): 1.2 (0.05) nmol min^−1 (mg protein)^−1; Total uptake ([4]; pNchoXW, host BT0028Ko, substrate 1 mM, mean (SE), n = 2): 8.5 (1.4) nmol (mg protein)^−1; Total uptake ([4]; pNchoXW, host BT3758Ko, substrate 1 mM, mean (SE), n = 3): 7.4 (0.8) nmol (mg protein)^−1; Total uptake ([4]; pNchoXWV, host BT2916Ko, substrate 1 mM, single replication): 6.1 nmol (mg protein)^−1; maximal rate of uptake (Vmax) (CbcX with CbcWV [8]): 34.6 nmol min^−1 (mg protein)^−1 and 34.6 (2.2) nmol min^−1 (mg protein)^−1; increase of initial uptake rate after growth with inducer [9]: three- to fourfold; uptake rate [9]: 1.8 nmol min^−1 (mg protein)^−1; % inhibition of uptake of substrate by unlabelled competitor (CbcX and CaiX with CbcWV; [^14C]betaine 10 μM): 99%; % inhibition of uptake of substrate by unlabelled competitor (CbcX and CaiX with CbcWV; [^14C]choline 10 μM): 96%"
"C[N+](C)(C)CC(=O)O [Betaine, glycine betaine]",11.9 nmol (mg protein)^−1,93,83,19,21.6 nmol (mg protein)^−1,89,88,12,6.1 nmol (mg protein)^−1,0 nmol (mg protein)^−1,0 nmol (mg protein)^−1,0 nmol (mg protein)^−1,2.8 (0.3) nmol (mg protein)^−1,3.0 (0.64) nmol (mg protein)^−1,3.0 nmol (mg protein)^−1,5.8 (1.1) nmol (mg protein)^−1,16.2 nmol (mg protein)^−1,2.7 nmol (mg protein)^−1,87,not inhibited,"fold lower affinity of CbcX for betaine than choline (CbcX with CbcWV [8]): approximately 10 fold; maximal rate of uptake (Vmax) (CbcX with CbcWV [8]; MKH13, pNcbcXWV, SBP CbcX, mean (SE), n = 4): 11.6 (0.6) nmol min^−1 (mg protein)^−1; maximal rate of uptake (Vmax) (CbcX with CbcWV [8]; MKH13, pNcbcXWV, SBP CbcX, mean (SE), n = 4, listed as betaine): 11.6 nmol min^−1 (mg protein)^−1; % inhibition of uptake of substrate by unlabelled competitor (CbcX with CbcWV [7]; [^14C]choline 10 μM, listed as Bet): 2%; increase of initial uptake rate after growth with inducer ([9]; DC3000 grown with 10 mM choline or betaine as inducers): three- to fourfold; uptake rate [9]: 0.6 nmol min^−1 (mg protein)^−1; % inhibition of uptake of substrate by unlabelled competitor (CbcX and CaiX with CbcWV; [^14C]betaine 10 μM): 88%; % inhibition of uptake of substrate by unlabelled competitor (CbcX and CaiX with CbcWV; [^14C]choline 10 μM): −1%"

# — article PMC5503199 (Molecular microbiology, 2009)
